{"source": "patent US20200340984A1", "about": "“METHODS OF QUANTIFYING CFTR PROTEIN EXPRESSION” (Proteostasis Therapeutics, Inc., priority 2017, published 2020)", "key": {"[1]": {"system": "F508del CFTR", "experiment": "CFTR AlphaLISA, F508del-CFBE cells", "assay_type": "cell-based", "conditions": "CFTR protein", "text": "A cystic fibrosis bronchial epithelial cell line (CFBE410-) stably expressing either F508del-CFTR (CFBE F508del) or wild type CFTR (CFBE WT) under the control of a human cytomegalovirus (CMV) promoter was used. A CFBE410-cell line that lacks detectable CFTR endogenously was used as a control (CFBE parental).\nIn this assay, streptavidin-coated donor beads are coated with a biotinylated antibody that recognizes the CFTR protein and acceptor beads are coated with a second antibody that recognizes the CFTR protein. The AlphaLISA® assay uses luminescent oxygen-channeling chemistry in which laser irradiation of donor beads at 680 nm causes chemiluminescent emission from the acceptor bead at 615 nm. Thus, when CFTR protein is present, both donor and acceptor beads bind the analyte. Their close proximity triggers a reaction that results in chemiluminescent emission at 615 nm from the acceptor bead. […]\nThe plate was read on a Perkin Elmer EnVision (or a similar instrument can be used) at 615 nm (AlphaLISA® Opti-384 program). […]"}, "[2]": {"system": "CFTR mRNA", "experiment": "CFTR mRNA qPCR, HNE-CF (F508del) cultures", "assay_type": "cell-based, human", "conditions": "qPCR (CFTR/Actin RNA), HNE-CF (homozygous F508del), 10 μM, 24 hours, vs DMSO", "description": "Primary human airway epithelial cells of nasal origin (HNEs) from CF donors homozygous for the F508del mutation (HNE CF) and non-CF donors (HNE WT) were purchased from Epithelix Sàrl (Geneva, Switzerland). The cells were cultured and differentiated as previously described (Pranke et al. (2017) Sci Rep. 7(1):7375). The primary cells were apically mucous washed for 30 minutes prior to treatment with the amplifier PTI-CH (1, 3, or 10 μM) and DMSO for 24 hours.\nFor isolation of RNA from cells, the filters were washed with PBS at room temperature. Total RNA was isolated using the Qiagen RNeasy Plus Universal Mini kit (Qiagen, Oslo, Norway). […] The RNA was quantified by NanoDrop (Thermo Fisher Scientific).\nFor Reverse transcription, 500 ng of total RNA was used for cells and 150 ng of RNA for nasal brushing sample was reverse transcribed using a High-Capacity Transcription Kit (Thermo Fisher Scientific) according to manufacturer's protocol. The CFTR transcript levels were measured using a human-specific CFTR primer (Catalog Number Hs00357011_ml, FAM-labeled Life Technologies). […]\nTo further confirm this finding, human nasal epithelial (HNE) cultures obtained from a non-CF (HNE-WT) or CF (HNE-F508del) donor were treated with and amplifier compound. Following 24-hour treatment period, filters were analyzed for either mRNA or protein analyses. […]"}}}
{"smiles": "O=C(NCCCn1nncc1CO)c1cc(-c2ccccc2)on1", "note": "[PTI-CH]", "values": [{"measurement": "Fold change (PTI-CH/DMSO)", "setting": "[1]", "value": "4.9 ± 0.53"}, {"measurement": "increase in CFTR mRNA expression", "setting": "[2]", "value": "approximately 3 fold"}]}
